Measurements: ChEMBL document CHEMBL1149299, “Hemolytic effects of water-soluble fullerene derivatives” (J Med Chem, 2004)

What was measured:
[1] = Cytotoxicity against […] HepG2 cells by MTT assay; format: cell-based; settings: read-out: LD50 (the source's name)
[2] = Cytotoxicity against pig LLC-PK1 cells by MTT assay; format: cell-based, Sus scrofa; settings: read-out: LD50 (the source's name)
[3] = Cytotoxicity against human MCF7 by MTT assay; format: cell-based; settings: MCF7 cells, read-out: LD50 (the source's name)
Erythrocyte [4] = assay: Hemolytic activity in human RBC at 30 uM; format: functional
Erythrocyte [5] = assay: Hemolytic activity in human RBC at 80 uM; format: functional

SMILES: CCCCCCCCCCCCCCCCCC(=O)NCCOCCOCCN.Cl
- CC50 [1]: > 80 µM
- CC50 [2]: > 80 µM
- CC50 [3]: > 80 µM
- Activity (Erythrocyte [4]): 34%
- Activity (Erythrocyte [5]): 53%

SMILES: C[N+]1(CCOCCOCCN)CCCC1
- CC50 [1]: > 80 µM
- CC50 [2]: > 80 µM
- CC50 [3]: > 80 µM
